According to patent US20040014772A1, “Compositions and methods for treating glomerular disorders” (priority 2000, published 2004):

What was measured:
[1] = Weight loss/gain of rats before and after treatments (PAN-induced nephrotic syndrome); type: in vivo, rat; details: rats, day 7; PAN 7.5 mg/100 g BW iv; CM 120 mg/kg ip twice a day; PB 400 mg/kg ip every other day; means ± SE
Method: Two different general CYP inhibitors were used, cimetidine (CM) and piperonyl butoxide (PB). Cimetidine has imidazole and cyano groups that inhibit CYP by interacting with the heme moiety. […] To determine the effect of the CYP inhibitors in PAN- induced nephrotic syndrome, CM (120 mg/kg BW) was administered intraperitoneal 1 h prior to PAN injection and then twice a day. Piperonyl butoxide (PB) which yields a metabolite that binds to the heme moiety of CYP, was given intraperitoneal (400 mg/kg BW) 4h before PAN injection and then every other day.
Also, the CYP2B1 inhibitor piperine (PIP), a methylenedioxyphenyl compound found in black and red pepper was used. PIP is believed to inhibit CYP2B1 by forming an inhibitory complex therewith. PIP was administered at a dose of 85 mg/kg of body weight (BW) by an intraperitoneal injection 16 hours prior to PAN injection and then once a day.

[2] = tested on: glomerular epithelial cells GEC; assay: PAN-induced cytotoxicity to GEC (trypan blue exclusion, LDH release); type: cell-based, rat; details: PAN 1.5 mM 48 h; preincubation CM 2 mM, PB 25 μM, RN 1 mM, PIP 0.2 mM, pyruvate 10 mM
Method: Rat GEC (kindly provided by both Dr. Saulo Klahr, Washington University School of Medicine, St. Louis, Mo., and Dr. […], University of Texas Health Science Center, San Antonio, Tex.) were maintained in RPMI-1640 medium supplemented with 10% FBS, 15 mM HEPES, insulin, penicillin, streptomycin and L-glutamine in a humidified atmosphere of 95% air-5% CO2 at 37° C. and fed at intervals of 3 days ([…] et al, 1995, Biochem. Biophys. 318(2):286-294). The cells were maintained in 75 Cm^2 tissue culture flasks and the monolayers were subcultured using 0.05% trypsin-0.53 mM EDTA in Hank's balanced salt solution (HBSS). For the experimental study, the cells were grown in 12-well tissue culture plate until confluence. On the day of experiment, the medium was discarded and the confluent GEC monolayer was washed twice with HBSS. The cells were then incubated with various concentrations of PAN (0, 0.1, 0.5, 1.0, 1.5, and 2.0 mM in HBSS) for different periods of time (0, 6 hours, 1 day, 2 days, 3 days and 4 days) at 37° C. At the end of the incubation, the incubation medium was discarded and the GEC monolayer was harvested by trypsinization with 0.05% trypsin-0.53 mM EDTA for 5 min at 37° C. Isolated cells were suspended in HBSS to give about 10^6 cells/ml. PAN-induced cytotoxicity to GEC was measured by the trypan blue exclusion assay (Baliga et al, 1996, Kidney Intl. 50:1118-1124) and lactate dehydrogenase (LDH) release assay (Baliga et al., 1998, Kidney Intl. 53:394-401.). The latter is the percentage of LDH released into the medium, to total LDH recovered from both medium and cellular fraction. […] After the incubation, the cell monolayers were washed twice with HBSS and then incubated with cytotoxic dose of PAN in HBSS for a period of time necessary to induce consistent cytotoxicity ([…], 48 h, based on the concentration and time course studies) at 37° C. PAN induced cytotoxicity on GEC was measured by trypan blue exclusion assay.

[3] = tested on: CYP2B1; assay: CYP2B1 content in GEC exposed to PAN (western blot); type: cell-based, rat; details: PAN 1.5 mM for 2 hr at 37° C.; CM 2 mM, PIP 0.2 mM, pyruvate 10 mM
Description: The microsome fraction obtained was subjected to SDS-page electrophoresis in 1 mm slab gels. The separated forms were transferred from gel to a nitrocellulose sheet using a Mini Trans-blot electroblotting unit. The primary antibodies were monoclonal anti-HO-1 (OSA-111, StressGen, Victoria, BC, Canada) and monoclonal anti-CYP2B1 (PM25, Oxford Biomedical Research, Oxford, Mich., USA). Subsequent to primary and secondary antibody (peroxidase-labeled) treatment, the blots were visualized by enhanced chemiluminescence method.

[4] = tested on: CYP; details: cited from earlier work

Row | CYP2B1 content in GEC [3] | Structure (SMILES) | Body weight After Treatment (day7) [1] [g] | PAN-induced cytotoxicity to GEC [2] | inhibition of CYP [4]
1 | – | CCCCOCCOCCOCc1cc2c(cc1CCC)OCO2 [PB, piperonyl butoxide] | 253 ± 4 | – | –
2 | preserve | CC(=O)C(=O)O [pyruvate] | – | prevent | –
3 | not | CNC(=C[N+](=O)[O-])NCCSCc1ccc(CN(C)C)o1 [RN, ranitidine] | – | did not show any protection | either weakly or not at all
4 | preserved | O=C(/C=C/C=C/c1ccc2c(c1)OCO2)N1CCCCC1 [PIP, piperine] | – | markedly reduced | –
